Assay results reported in US4863951A, “Pharmacologically active amino-5,6,7,8-tetrahydronaphtho [2,3-B] furan compounds” (ADIR Et Cie, priority 1987, dated 1989).
Where a name gives a salt, the structure may show the parent alone. Read-outs that look alike come from different tables or passages of the source.

Key:
[1] = test system: apomorphine-induced rearing-up; experiment: Antagonism of apomorphine-induced rearing-up behavior in mice; assay type: in vivo; conditions: Mus musculus, apomorphine 0.75 mg.kg^-1 s.c.
Outline: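 Mice given compound i.p. (doses from 2.5 mg.kg^-1) or orally at 20 mg.kg^-1, then challenged with apomorphine 0.75 mg.kg^-1 s.c.; antagonism of rearing-up behavior scored per Protais et al., significance at p<0.05.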

[2] = test system: apomorphine-induced stereotypy; experiment: Antagonism of apomorphine-induced stereotypy in rats; assay type: in vivo; conditions: Rattus norvegicus, 0.5 h, apomorphine 1.5 mg.kg^-1 i.p., 30 minutes
Outline: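 Rats received apomorphine or amphetamine i.p. at 1.5 mg.kg^-1, and stereotyped movements were scored on the Quinton–Halliwell scale. Values are % inhibition (−) or potentiation (+) of stereotypy score, measured at 30 minutes for apomorphine and 3 hours for amphetamine.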

[3] = test system: amphetamine-induced stereotypy; experiment: Antagonism of amphetamine-induced stereotypy in rats; assay type: in vivo; conditions: 3 hours
Description: The inhibitory activity of the compounds of the invention with respect to apomorphine- or amphetamine-induced stereotypy in rats was assessed using the scale of scoring of stereotyped movements described by Quinton R. M. and Halliwell G. in Nature (1963), 200, p. 178-179.
Apomorphine or amphetamine was administered to the animals intraperitoneally at a dose of 1.5 mg.kg^-1. The percentage inhibition (-) or potentiation (+) of the stereotypy score (% ISS) shown in Tables IV and V for apomorphine corresponds to a measurement time of 30 minutes. In contrast, the percentage inhibition of the stereotypy score shown in Table VI for amphetamine corresponds to a measurement time of 3 hours.
(s=significant difference, p<0.05).

[4] = test system: apomorphine-induced hypothermia; experiment: Antagonism with respect to apomorphine-induced hypothermia in mice; assay type: in vivo; conditions: Mus musculus, 2 h, apomorphine 1 mg.kg^-1 s.c., after 2 hours
Description: Testing for an antagonism with respect to apomorphine-induced hypothermia in mice was performed according to the method described by CHERMAT R. and PONCELET M. in J. Pharmac. (1983), 14, No. 1, p. 93-97. The dose of apomorphine administered subcutaneously was 1 mg.kg^-1. Tables VII and VIII show the percentage antagonism of the hypothermia observed after 2 hours.

[5] = test system: isolation-induced aggression; experiment: Antiaggressive effects: isolation-induced aggression in mice; assay type: in vivo; conditions: isolated mice, i.p.
Outline: (§1)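 Two paradigms: inhibition of aggressive behaviour in previously isolated mice, and in isolated, bulbectomized rats. Significance set at p<0.05.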

[6] = test system: aggression of isolated, bulbectomized rats; experiment: Antiaggressive effects: aggression of isolated, bulbectomized rats; assay type: in vivo; conditions: i.p.
Outline: as §1

[7] = test system: reserpine-induced hypothermia; experiment: Antagonism of reserpine-induced hypothermia; assay type: in vivo, Swiss CD male mice; conditions: mice, reserpine 2.5 mg.kg^-1 i.p.
Outline: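 Male Swiss CD mice (27-28 g, n=10/group) given reserpine 2.5 mg.kg^-1 i.p., then test compound i.p. 3 h later. Rectal temperature taken 1 and 2 h after compound dosing and compared with each animal's temperature just before compound administration.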

[8] = test system: ponto-geniculo-occipital (P.G.O.) waves induced by Ro4-1284; experiment: Antagonism of the ponto-geniculo-occipital (P.G.O.) waves induced by Ro4-1284; assay type: in vivo; conditions: Felis catus, iv, cats, i.v., read-out: ED50 (effective dose inhibiting by 50% the number of P.G.O. waves)
Description: The antidepressant effects of the compounds of the invention were investigated by assessing the antagonism of reserpine-induced hypothermia and the antagonism of the ponto-geniculo-occipital waves induced by the compound Ro4-1284 in cats.
This study was performed according to the method of Ruch-Monachon M. A., Jalfre M. and Haefely W. described in Arch. Int. Pharm. Therap., (1976), 219, No. 2, p. 251-346, and it enabled the effective dose (i.v) inhibiting by 50% (ED50) the number of P.G.O waves to be assessed.

[9] = test system: interoceptive stimulus of apomorphine; experiment: Drug discrimination in rats (generalization with apomorphine); assay type: in vivo; conditions: 30 minutes before test
Description: Rats were trained to discriminate between the effect of the interoceptive stimulus of apomorphine (0.2 mg.kg^-1 i.p.) and that of physiological saline, according to a principle described by Colpaert F. in "Drug discrimination application in C.N.S. Pharmacology" Ed. Elsevier Biomedical 1982, Amsterdam. […]
Under the experimental conditions employed, the behavior shown by the animals coincides with that noted in the case of administration of apomorphine.

Question: How did the change in vivo at 5 mg/kg ([1]; ip, read-out: % inhibition of rearing-up, mice, i.p. dose 5 mg.kg^-1) turn out when `NC1CCc2cc3c(cc2C1)OCC3` (racemic) [Example 2, di-7-Amino-2,3,5,6,7,8-hexahydronaphtho[2,3-b]furan hydrochloride] was run?
Answer: The change in vivo at 5 mg/kg was -56%.

Question: What about the change in vivo at 10 mg/kg ([1]; ip, read-out: % inhibition of rearing-up, mice, i.p. dose 10 mg.kg^-1) of the same compound?
Answer: Its change in vivo at 10 mg/kg is -58%.

Question: And the change in vivo at 20 mg/kg ([1]; ip, read-out: % inhibition of rearing-up, mice, i.p. dose 20 mg.kg^-1)?
Answer: Its change in vivo at 20 mg/kg is -91%.

Question: And the change in vivo at 40 mg/kg ([1]; ip, read-out: % inhibition of rearing-up, mice, i.p. dose 40 mg.kg^-1)?
Answer: The change in vivo at 40 mg/kg was -100%.

Question: What about the change in vivo at 10 mg/kg ([1]; po, read-out: % inhibition of rearing-up, mice, p.o. dose 10 mg.kg^-1) of the same compound?
Answer: Its change in vivo at 10 mg/kg is -77%.

Question: What about the change in vivo at 20 mg/kg ([1]; po, read-out: % inhibition of rearing-up, mice, p.o. dose 20 mg.kg^-1) of the same compound?
Answer: The change in vivo at 20 mg/kg was -100%.

Question: What about the change in vivo at 5 mg/kg ([2]; ip, read-out: % ISS (inhibition (-) or potentiation (+) of the stereotypy score), rats, i.p. dose 5 mg.kg^-1) of the same compound?
Answer: Its change in vivo at 5 mg/kg is -16%.

Question: What about the change in vivo at 10 mg/kg ([2]; ip, read-out: % ISS (inhibition (-) or potentiation (+) of the stereotypy score), rats, i.p. dose 10 mg.kg^-1) of the same compound?
Answer: Its change in vivo at 10 mg/kg is -62%.

Question: And the change in vivo at 20 mg/kg ([2]; ip, read-out: % ISS (inhibition (-) or potentiation (+) of the stereotypy score), rats, i.p. dose 20 mg.kg^-1)?
Answer: The change in vivo at 20 mg/kg was -48%.

Question: What about the change in vivo at 10 mg/kg ([2]; po, read-out: % ISS (inhibition (-) or potentiation (+) of the stereotypy score), rats, p.o. dose 10 mg.kg^-1) of the same compound?
Answer: Its change in vivo at 10 mg/kg is -55%.

Question: What about the change in vivo at 20 mg/kg ([2]; po, read-out: % ISS (inhibition (-) or potentiation (+) of the stereotypy score), rats, p.o. dose 20 mg.kg^-1) of the same compound?
Answer: The change in vivo at 20 mg/kg was -55%.

Question: And the “% ISS (inhibition (-) or potentiation (+) of the stereotypy score)” value ([3]; i.p. dose 5 mg.kg^-1, amphetamine 1.5 mg.kg^-1 i.p.)?
Answer: The value was “+32%”.

Question: And the “% ISS (inhibition (-) or potentiation (+) of the stereotypy score)” value ([3]; i.p. dose 10 mg.kg^-1, amphetamine 1.5 mg.kg^-1 i.p.)?
Answer: The value was “+39%”.

Question: What about the change in vivo at 1 mg/kg ([4]; ip, read-out: % antagonism of hypothermia, mice, i.p. dose 1) of the same compound?
Answer: The change in vivo at 1 mg/kg was -11%.

Question: What about the change in vivo at 5 mg/kg ([4]; ip, read-out: % antagonism of hypothermia, mice, i.p. dose 5) of the same compound?
Answer: The change in vivo at 5 mg/kg was -57%.

Question: What about the change in vivo at 10 mg/kg ([4]; ip, read-out: % antagonism of hypothermia, mice, i.p. dose 10) of the same compound?
Answer: The change in vivo at 10 mg/kg was -54%.

Question: What about the change in vivo at 20 mg/kg ([4]; ip, read-out: % antagonism of hypothermia, mice, i.p. dose 20) of the same compound?
Answer: Its change in vivo at 20 mg/kg is -80%.

Question: And the change in vivo at 2.5 mg/kg ([4]; po, read-out: % antagonism of hypothermia, mice, p.o. dose 2.5)?
Answer: Its change in vivo at 2.5 mg/kg is -35%.

Question: What about the change in vivo at 5 mg/kg ([4]; po, read-out: % antagonism of hypothermia, mice, p.o. dose 5) of the same compound?
Answer: The change in vivo at 5 mg/kg was -59%.

Question: And the change in vivo at 10 mg/kg ([4]; po, read-out: % antagonism of hypothermia, mice, p.o. dose 10)?
Answer: The change in vivo at 10 mg/kg was -70%.

Question: What about the change in vivo at 20 mg/kg ([4]; po, read-out: % antagonism of hypothermia, mice, p.o. dose 20) of the same compound?
Answer: The change in vivo at 20 mg/kg was -86%.

Question: What about the “% of pairs of mice showing no sign of fighting” value ([5]; 2.5 mg.kg^-1) of the same compound?
Answer: Its value is 40%.

Question: And the “% of pairs of mice showing no sign of fighting” value ([5]; 5 mg.kg^-1)?
Answer: Its value is 70%.

Question: And the “% of pairs of mice showing no sign of fighting” value ([5]; 10 mg.kg^-1)?
Answer: Its value is 100%.

Question: And the “% of pairs of mice showing no sign of fighting” value ([5]; 20 mg.kg^-1)?
Answer: The value was 100%.

Question: And the “% of rats rendered non-aggressive” value ([6]; 1.25 mg.kg^-1)?
Answer: Its value is 17%.

Question: What about the “% of rats rendered non-aggressive” value ([6]; 2.5 mg.kg^-1) of the same compound?
Answer: Its value is 50%.

Question: What about the “% of rats rendered non-aggressive” value ([6]; 5 mg.kg^-1) of the same compound?
Answer: Its value is 73%.

Question: And the “% of rats rendered non-aggressive” value ([6]; 10 mg.kg^-1)?
Answer: Its value is 17%.

Question: And the “% inhibition of hypothermia” value ([7]; 2.5 mg.kg^-1 i.p.)?
Answer: The value was -62%.

Question: And the “% inhibition of hypothermia” value ([7]; 5 mg.kg^-1 i.p.)?
Answer: Its value is -27%.

Question: And the “% inhibition of hypothermia” value ([7]; 10 mg.kg^-1 i.p.)?
Answer: The value was -32%.

Question: What about the “% inhibition of hypothermia” value ([7]; 20 mg.kg^-1 i.p.) of the same compound?
Answer: Its value is -47%.

Question: And the ED50 [8]?
Answer: Its ED50 is 0.146 mg/kg.

Question: What about the “% of animals which generalize” value ([9]; 1.0 mg.kg^-1 i.p.) of the same compound?
Answer: The value was 20%.

Question: What about the “Number of animals showing the effect of generalization with apomorphine” value (from here on “Number”) ([9]; 1.0 mg.kg^-1 i.p.) of the same compound?
Answer: Its value is 2/10.

Question: What about the “% of animals which generalize” value ([9]; 2.5 mg.kg^-1 i.p.) of the same compound?
Answer: The value was 77%.

Question: What about the “Number” value ([9]; 2.5 mg.kg^-1 i.p.) of the same compound?
Answer: The value was 7/9.

Question: What about the “% of animals which generalize” value ([9]; 5.0 mg.kg^-1 i.p.) of the same compound?
Answer: Its value is 50%.

Question: And the “Number” value ([9]; 5.0 mg.kg^-1 i.p.)?
Answer: The value was 2/4.
